Data: patent publication US8916702B2 (priority 2012, dated 2014)
Where two headings read alike, the source gives them in different places.

System: HCV pseudoparticles (genotype 1a HCV E1 and E2 envelope, H77C isolate)
Assay: microbe, parasite or virus in culture
Assay type: cell-based
Settings: Hepatitis C virus
[1] = Huh-7, read-out: Activity (EC50 class), HCV pseudoparticles (genotype 1a, H77C) in Huh7 cells, EC50 expressed as class A/B
[2] = Huh-7, 48 h, HCV pseudoparticles (genotype 1a, H77C) in Huh7 cells, average of duplicate, luciferase 2 days after infection
[3] = Huh-7, 48 h, HCV pseudoparticles, Huh7 cells, luciferase 2 days after infection, average of duplicates
[4] = Huh-7, 48 h, read-out: Activity (EC50 class), HCV pseudoparticles, Huh7 cells, luciferase 2 days after infection, average of duplicates
[5] = Huh-7, 48 h, read-out: Activity (EC50 class), HCV pseudoparticle infection of Huh7 cells, luciferase 2 days after infection, EC50 expressed as class A/B
[6] = Huh-7, 48 h, HCV pseudoparticle infection of Huh7 cells, luciferase 2 days after infection, average of duplicates

## O=C(NCC1(CNC(=O)c2ccc(Nc3nc(NC4(c5ccc(Cl)cc5)CC4)nc(OCC(F)(F)F)n3)cc2)CC1)C(=O)Nc1cccc(F)c1 [Compound 3001]
[1]
  EC50: 0.01 to 10 nM

## COC(=O)[C@H](CNC(=O)C(=O)Nc1ccc(C(=O)c2ccccc2)cc1)NC(=O)c1ccc(Nc2nc(NC3(c4ccc(Cl)cc4)CC3)nc(OCC(F)(F)F)n2)cc1 [Compound 3084]
[2]
  EC50: 3.58 nM
[1]
  EC50: 0.01 to 10 nM

## COC(=O)[C@H](CNC(=O)C(=O)Nc1ccc(OCCN2C(=O)c3ccccc3C2=O)nc1)NC(=O)c1ccc(Nc2nc(NC3(c4ccc(Cl)cc4)CC3)nc(OCC(F)(F)F)n2)cc1 [Compound 3682]
[3]
  EC50: 0.31 nM
[4]
  EC50: 0.01 to 10 nM

## COC(=O)[C@H](CCNC(=O)C(=O)Nc1cccc(O)c1)NC(=O)c1ccc(Nc2nc(NC3(c4ccc(Cl)cc4)CC3)nc(OCC(F)(F)F)n2)cc1 [Compound 1521]
[5]
  EC50: 0.01 to 10 nM

## O=C(NCC(O)CNC(=O)c1ccc(Nc2nc(NC3(c4ccc(Cl)cc4)CC3)nc(OCC(F)(F)F)n2)cc1)C(=O)N1CCc2ccccc2C1 (stereo not shown) [Compound 3464]
[1]
  EC50: 0.01 to 10 nM

## CC(C)(CNC(=O)C(=O)NCc1ccccc1-c1ccccc1)CNC(=O)c1ccc(Nc2nc(NC3(c4ccc(Cl)cc4)CC3)nc(OCC(F)(F)F)n2)cc1 [Compound 3035]
[1]
  EC50: 0.01 to 10 nM

## COC(=O)[C@H](CCNC(=O)C(=O)Nc1cccc(CCC(N)O)c1)NC(=O)c1ccc(Nc2nc(NC3(c4ccc(Cl)cc4)CC3)nc(OCC(F)(F)F)n2)cc1 (stereo partly shown) [Compound 3609]
[4]
  EC50: 0.01 to 10 nM

## O=C(NCC[C@H](NC(=O)c1ccc(Nc2nc(NC3(c4ccc(Cl)cc4)CC3)nc(OCC(F)(F)F)n2)cc1)C(=O)O)C(=O)NC1CCCCCC1 [Compound 1122]
[5]
  EC50: 0.01 to 10 nM

## NC(=O)C(=O)NCCNC(=O)c1ccc(Nc2nc(NC3(c4ccc(Cl)cc4)CC3)nc(OCC(F)(F)F)n2)cc1 [Compound 3380]
[1]
  EC50: 0.01 to 10 nM

## COC(=O)[C@H](CCNC(=O)C(=O)Nc1cccc(C(F)(F)F)c1)NC(=O)c1ccc(Nc2nc(NC3(c4ccc(Cl)cc4)CC3)nc(OCC(F)(F)F)n2)cc1 [Compound 1229]
[5]
  EC50: 0.01 to 10 nM

## O=C(NC[C@H](NC(=O)c1ccc(Nc2nc(NC3(c4ccc(Cl)cc4)CC3)nc(OCC(F)(F)F)n2)cc1)C(=O)O)C(=O)Nc1cccc(-c2ccc(Cl)cc2)c1 [Compound 3775]
[4]
  EC50: 0.01 to 10 nM

## COC(=O)[C@@H](CCNC(=O)C(=O)Nc1cccc(OC(F)(F)F)c1)NC(=O)c1ccc(Nc2nc(NC3(c4ccc(Cl)cc4)CC3)nc(OCC(F)(F)F)n2)cc1 [Compound 3577]
[2]
  EC50: 0.16 nM
[1]
  EC50: 0.01 to 10 nM

## CC(C)(C)c1ccc(NC(=O)C(=O)NC[C@H](NC(=O)c2ccc(Nc3nc(NC4(c5ccc(Cl)cc5)CC4)nc(OCC(F)(F)F)n3)cc2)C(=O)O)cc1 [Compound 3294]
[1]
  EC50: 0.01 to 10 nM

## O=C(NC/C(=N/C(=O)c1ccc(Nc2nc(NC3(c4ccc(Cl)cc4)CC3)nc(OCC(F)(F)F)n2)cc1)C(=O)O)C(=O)Nc1ccc(C2CCCCC2)cc1 [Compound 3147]
[1]
  EC50: 0.01 to 10 nM

## CC(C)(CNC(=O)C(=O)Nc1ccc2c(c1)Cc1ccccc1-2)CNC(=O)c1ccc(Nc2nc(NC3(c4ccc(Cl)cc4)CC3)nc(OCC(F)(F)F)n2)cc1 [Compound 1570]
[6]
  EC50: 0.05 nM
[5]
  EC50: 0.01 to 10 nM

## COC(=O)/C(CCNC(=O)C(=O)Nc1cncc(-c2nncn2C)c1)=N\C(=O)c1ccc(Nc2nc(NC3(c4ccc(Cl)cc4)CC3)nc(OCC(F)(F)F)n2)cc1 [Compound 3597]
[2]
  EC50: 3.05 nM
[1]
  EC50: 0.01 to 10 nM

## COC(=O)[C@H](CNC(=O)C(=O)Nc1ccc(F)cc1)NC(=O)c1ccc(Nc2nc(NC3(c4ccc(Cl)cc4)CC3)nc(OCC(F)(F)F)n2)cc1 [Compound 1252]
[5]
  EC50: 0.01 to 10 nM

## Cc1ccc(NC(=O)C(=O)NCC(C)(C)CNC(=O)c2ccc(Nc3nc(NC4(c5ccc(Cl)cc5)CC4)nc(OCc4ccc(OC(F)F)cc4)n3)cc2)cc1 [Compound 3840]
[4]
  EC50: 0.01 to 10 nM

## Cc1ccc(NC(=O)C(=O)NCC(C)(O)CNC(=O)c2ccc(Nc3nc(NC4(c5ccc(Cl)cc5)CC4)nc(OCC(F)(F)F)n3)cc2)cc1 (stereo not shown) [Compound 3832]
[4]
  EC50: 0.01 to 10 nM

## O=C(NC[C@H](NC(=O)c1ccc(Nc2nc(NC3(c4ccccc4)CC3)nc(OCC(F)(F)F)n2)cc1)C(=O)O)C(=O)Nc1ccc(Oc2ccc(F)cc2)cc1 [Compound 3269]
[1]
  EC50: 0.01 to 10 nM

## O=C(NCc1ccc(F)c(F)c1)C(=O)NC[C@H](NC(=O)c1ccc(Nc2nc(NC3(c4ccc(Cl)cc4)CC3)nc(OCC(F)(F)F)n2)cc1)C(=O)O [Compound 1171]
[5]
  EC50: 0.01 to 10 nM

## Cc1cc(NC(=O)C(=O)NCC(C)(C)CNC(=O)c2ccc(Nc3nc(NC4(c5ccc(Cl)cc5)CC4)nc(OCC(F)(F)F)n3)cc2)ccc1F [Compound 3060]
[1]
  EC50: 0.01 to 10 nM

## O=C(NCCc1ccncc1)C(=O)NC[C@H](NC(=O)c1ccc(Nc2nc(NC3(c4ccc(Cl)cc4)CC3)nc(OCC(F)(F)F)n2)cc1)C(=O)O [Compound 1400]
[6]
  EC50: 3.77 nM
[5]
  EC50: 0.01 to 10 nM

## CCc1ccc(NC(=O)C(=O)NC[C@H](NC(=O)c2ccc(Nc3nc(NC4(c5ccc(Cl)cc5)CC4)nc(OCC(F)(F)F)n3)cc2)C(=O)OC)cc1 [Compound 3213]
[1]
  EC50: 0.01 to 10 nM

## COC(=O)[C@H](CCNC(=O)C(=O)Nc1ccc(OC2CCOCC2)cc1)NC(=O)c1ccc(Nc2nc(NC3(c4ccc(Cl)cc4)CC3)nc(OCC(F)(F)F)n2)cc1 [Compound 3325]
[2]
  EC50: 2.4 nM
[1]
  EC50: 0.01 to 10 nM

## Cc1ccc(NC(=O)C(=O)NC[C@H](NC(=O)c2ccc(Nc3nc(NC4(c5ccc(Cl)cc5)CC4)nc(OCC(F)(F)F)n3)cc2)C(=O)O)cc1 [Compound 1360]
[5]
  EC50: 0.01 to 10 nM

## COC(=O)[C@H](CNC(=O)C(=O)Nc1ccccc1OC)NC(=O)c1ccc(Nc2nc(NC3(c4ccc(Cl)cc4)CC3)nc(OCC(F)(F)F)n2)cc1 [Compound 1256]
[6]
  EC50: 0.64 nM
[5]
  EC50: 0.01 to 10 nM

## COc1ncccc1NC(=O)C(=O)NCC(C)(C)CNC(=O)c1ccc(Nc2nc(NC3(c4ccc(Cl)cc4)CC3)nc(OCC(F)(F)F)n2)cc1 [Compound 3366]
[2]
  EC50: 0.14 nM
[1]
  EC50: 0.01 to 10 nM

## CC(O)(CNC(=O)C(N)=O)CNC(=O)c1ccc(Nc2nc(NC3(c4ccc(Cl)cc4)CC3)nc(OCC(F)(F)F)n2)cc1 (stereo not shown) [Compound 3834]
[3]
  EC50: 0.086 nM
[4]
  EC50: 0.01 to 10 nM

## CC(C)(O)C=Cc1cccc(NC(=O)C(=O)NCC[C@H](NC(=O)c2ccc(Nc3nc(NC4(c5ccc(Cl)cc5)CC4)nc(OCC(F)(F)F)n3)cc2)C(=O)O)c1 [Compound 3648]
[3]
  EC50: 0.2 nM
[4]
  EC50: 0.01 to 10 nM

## Cc1nnnn1-c1cc(Nc2nc(NC3(c4ccc(Cl)cc4)CC3)nc(OCC(F)(F)F)n2)ccc1C(=O)NCC(C)(C)CNC(=O)C(=O)Nc1cccc(F)c1 [Compound 3517]
[1]
  EC50: 0.01 to 10 nM

## O=C(NCC[C@H](NC(=O)c1ccc(Nc2nc(NC3(c4ccc(Cl)cc4)CC3)nc(OCC(F)(F)F)n2)cc1)C(=O)O)C(=O)NC1CCCC(O)C1 (stereo partly shown) [Compound 1112]
[6]
  EC50: 1.23 nM
[5]
  EC50: 0.01 to 10 nM

## Cc1ccc(NC(=O)C(=O)NCC(C)(C)CNC(=O)c2ccc(Nc3nc(NC4(c5ccc(Cl)cc5)CC4)nc(OCc4ccccc4Cl)n3)cc2)cc1 [Compound 3850]
[4]
  EC50: 0.01 to 10 nM

## COC(=O)[C@@H](CCNC(=O)C(=O)Nc1ccc(Cl)nc1)NC(=O)c1ccc(Nc2nc(NC3(c4ccc(Cl)cc4)CC3)nc(OCC(F)(F)F)n2)cc1 [Compound 3570]
[1]
  EC50: 0.01 to 10 nM

## COC(=O)[C@H](CCNC(=O)C(=O)NCc1ccc(F)c(F)c1)NC(=O)c1ccc(Nc2nc(NC3(c4ccc(Cl)cc4)CC3)nc(OCC(F)(F)F)n2)cc1 [Compound 1159]
[5]
  EC50: 0.01 to 10 nM

## COc1ccc(NC(=O)C(=O)NCC(C)(C)CNC(=O)c2ccc(Nc3nc(NC4(c5ccc(Cl)cc5)CC4)nc(OCc4ccc(C(C)C)cc4)n3)cc2F)cc1 [Compound 3828]
[3]
  EC50: 0.35 nM
[4]
  EC50: 0.01 to 10 nM

## CC(C)(CNC(=O)C(=O)Nc1cccc(C(=O)c2ccccc2)c1)CNC(=O)c1ccc(Nc2nc(NC3(c4ccc(Cl)cc4)CC3)nc(OCC(F)(F)F)n2)cc1 [Compound 3078]
[1]
  EC50: 0.01 to 10 nM

## O=C(NCCc1ccccc1F)C(=O)NC[C@H](NC(=O)c1ccc(Nc2nc(NC3(c4ccc(Cl)cc4)CC3)nc(OCC(F)(F)F)n2)cc1)C(=O)O [Compound 1402]
[5]
  EC50: 0.01 to 10 nM

## CC(C)(CNC(=O)C(=O)Nc1nc2cnccc2s1)CNC(=O)c1ccc(Nc2nc(NC3(c4ccc(Cl)cc4)CC3)nc(OCC(F)(F)F)n2)cc1 [Compound 3808]
[4]
  EC50: 0.01 to 10 nM

## COC(=O)[C@H](CNC(=O)C(=O)Nc1ccc(-c2cnco2)cc1)NC(=O)c1ccc(Nc2nc(NC3(c4ccc(Cl)cc4)CC3)nc(OCC(F)(F)F)n2)cc1 [Compound 3093]
[1]
  EC50: 0.01 to 10 nM

## COC(=O)[C@@H](CCNC(=O)C(=O)NCC1(CO)CC1)NC(=O)c1ccc(Nc2nc(NC3(c4ccc(Cl)cc4)CC3)nc(OCC(F)(F)F)n2)cc1 [Compound 1380]
[5]
  EC50: 0.01 to 10 nM

## NC(=O)NCc1ccc(NC(=O)C(=O)NCCC(NC(=O)c2ccc(Nc3nc(NC4(c5ccc(Cl)cc5)CC4)nc(OCC(F)(F)F)n3)cc2)C(=O)O)cc1 (stereo not shown) [Compound 3535]
[1]
  EC50: 0.01 to 10 nM

## O=C(NCCC(NC(=O)c1ccc(Nc2nc(NC3(c4ccc(Cl)cc4)CC3)nc(OCC(F)(F)F)n2)cc1)C(=O)O)C(=O)Nc1ccc(-c2cc[nH]n2)cc1 (stereo not shown) [Compound 3531]
[1]
  EC50: 0.01 to 10 nM

## COC(=O)[C@H](CCNC(=O)C(=O)Nc1ccc(OC(F)F)cc1)NC(=O)c1ccc(Nc2nc(NC3(c4ccc(Cl)cc4)CC3)nc(OCC(F)(F)F)n2)cc1 [Compound 3332]
[1]
  EC50: 0.01 to 10 nM

## CC(C)(CNC(=O)C(=O)NO)CNC(=O)c1ccc(Nc2nc(NC3(c4ccc(Cl)cc4)CC3)nc(OCC(F)(F)F)n2)cc1 [Compound 3074]
[2]
  EC50: 0.054 nM
[1]
  EC50: 0.01 to 10 nM

## O=C(NC/C(=N/C(=O)c1ccc(Nc2nc(NC3(c4ccc(Cl)cc4)CC3)nc(OCC(F)(F)F)n2)cc1)C(=O)O)C(=O)Nc1ccc(NCc2ccccc2)cc1 [Compound 3158]
[1]
  EC50: 0.01 to 10 nM

## C[C@H]1[C@@H](NC(=O)C(=O)NC[C@H](NC(=O)c2ccc(Nc3nc(NC4(c5ccc(Cl)cc5)CC4)nc(OCC(F)(F)F)n3)cc2)C(=O)O)C[C@H]2C[C@@H]1C2(C)C [Compound 1094]
[5]
  EC50: 0.01 to 10 nM
